Assay results reported in ChEMBL document CHEMBL3301361, “Experimental in vitro DMPK and physicochemical data on a set of publicly disclosed compounds”.
Values after ≈ are worked out from the molar mass of the structure shown.

Key:
in vitro [1] = conditions: hepatocytes
in vitro [2] = conditions: SD, HW or BN, rat, plasma
in vitro [3] = conditions: human
physchem [4] = conditions: octan-1-ol/water
physchem [5] = conditions: pH 7.4 buffer
in vitro [6] = conditions: human, plasma

| Compound | hepatocyte CLint (in vitro [1]) [µL/min/1e6 cells] | logD (physchem [4]; pH 7.4, LogD7.4) | further results |
| --- | --- | --- | --- |
| C[C@@H]1Cc2c([nH]c3cc(Cl)c(F)cc23)[C@]2(N1)C(=O)Nc1ccc(Cl)cc12 | 7.24 |  |  |
| CN1CCN(c2ccc(-c3cnc4cccc(-c5cc(F)c(CN6CCOCC6)c(F)c5)c4n3)cc2)CC1 | 14.4 |  |  |
| Oc1nc2c(O)ccc(CCNCCCSCCOCCc3cccc4ccccc34)c2s1 |  |  | fraction unbound at 5 h (in vitro [2]): 0.0122; microsomal CLint (in vitro [3]; liver microsomes): 36 µL/min/mg |
| Nc1ccc2c(-c3ccncc3)c(-c3ccc(F)cc3)[nH]c2n1 | 117 |  |  |
| COc1ccc2nc(C)cc(-n3cc(CN4CCN(C(C)=O)CC4)nn3)c2c1 | 5.13 | 1.3 |  |
| Cc1nc(C(=O)N2CCOC3(CCN(Cc4ccc(Cl)cc4)CC3)C2)cs1 | 47 | 2.17 |  |
| CC1(C)CNC(=O)c2sc(N3CCOCC3)nc2C1 |  | 1.29 | solubility thermodynamic (physchem [5]): 251 µM (≈ 70.7 µg/mL); fraction unbound at 5 h (in vitro [6]; PPB): 0.701; fraction unbound at 5 h (in vitro [2]): 0.517 |
| Cc1cc(NC(=O)Nc2cccc3ccccc23)no1 | 95.5 |  |  |
| Cn1sc(=O)c2cc(S(=O)(=O)NC3CC3)ccc21 | > 150 | 1.3 |  |
| COc1cc2cc(-c3ccc(O)cc3O)nc(C)c2cc1OC | > 150 |  |  |
| NCCc1ccc(O)c2nc(O)sc12 | > 150 |  | logD (physchem [4]; pH 7.4): 0.33 |
| O=C(NCCc1ccccc1)c1cc(-n2ncc(=O)[nH]c2=O)ccc1Cl |  | 0.74 | fraction unbound at 5 h (in vitro [6]; PPB): 0.0251; fraction unbound at 5 h (in vitro [2]): 0.0391; microsomal CLint (in vitro [3]; liver microsomes): < 3 µL/min/mg |
| c1ccc(Nc2nc3c(s2)CCCc2[nH]ncc2-3)nc1 | 36.3 |  |  |
| Cc1nn(-c2ccccc2)c(NS(=O)(=O)C2CCCCC2)c1C(=O)N[C@@H](C)C(C)(C)C |  | 1.75 | solubility thermodynamic (physchem [5]): 398 µM (≈ 178 µg/mL); fraction unbound at 5 h (in vitro [6]; PPB): 0.0149; fraction unbound at 5 h (in vitro [2]): 0.0163 |
| COc1ccc2ncc(F)c(CCN3CCC(NCc4ccc5c(n4)NC(=O)CO5)CC3)c2n1 | 39.8 | 1.78 |  |
| COc1ccc2ncc(=O)n(CCN3CCC(NCc4cc5c(cn4)OCCO5)CC3)c2c1 | > 150 | 0.93 |  |
| Cc1c(Sc2ccc(Cl)cc2)c2c(-c3cnccn3)cccc2n1CC(=O)O |  | 0.03 | fraction unbound at 5 h (in vitro [6]; PPB): 0.0124; fraction unbound at 5 h (in vitro [2]): 0.024; microsomal CLint (in vitro [3]; microsomes): 8 µL/min/mg |
| C[C@@](C(=O)O[C@H]1C[N+]2(CCCc3cncnc3)CCC1CC2)(c1ccccc1)N1CCCCC1 | 66 |  |  |
| C[C@@](C(=O)O[C@H]1C[N+]2(CCCc3cc4ccccc4s3)CCC1CC2)(c1ccccc1)N1CCCCC1 | 65 |  |  |
| C[C@@](C(=O)O[C@H]1C[N+]2(CCOc3ccc(Cl)cc3)CCC1CC2)(c1ccccc1)N1CCCCC1 | 60 |  |  |
| C[C@@](C(=O)O[C@H]1C[N+]2(CCCOc3ccc(F)cc3)CCC1CC2)(c1ccccc1)N1CCCCC1 | 66 |  |  |
| C[C@@](C(=O)O[C@H]1C[N+]2(CCOCCc3ccccc3)CCC1CC2)(c1ccccc1)N1CCCCC1 | 77 |  |  |
| C[C@@](C(=O)O[C@H]1C[N+]2(CC(=O)Nc3ccncn3)CCC1CC2)(c1ccccc1)N1CCCCC1 | 39 |  |  |
| CC(C)=CCC[N+]12CCC(CC1)[C@@H](OC(=O)[C@](C)(c1ccccc1)N1CCCCC1)C2 | 101 |  |  |

| Compound | hepatocyte CLint (in vitro [1]) [µL/min/1e6 cells] | logD (physchem [4]; pH 7.4, LogD7.4) | further results |
| --- | --- | --- | --- |
| Cc1ccc(S(=O)(=O)Nc2c(C(=O)N[C@@H](C)C(C)(C)C)c(C)nn2C2CCC2)cc1 |  | 1.57 | fraction unbound at 5 h (in vitro [6]; PPB): 0.0183; fraction unbound at 5 h (in vitro [2]): 0.0209; microsomal CLint (in vitro [3]; microsomes): 11 µL/min/mg |
| CN[C@@H](C)C(=O)N[C@H](C(=O)N[C@H]1C[C@@H]2CC[C@H]1N(CCc1ccccc1)C2)C1CCCCC1 | 19.9 | 1.64 |  |
| C[C@@](CCc1ccc(-c2ccc(Cl)cc2)cc1)(C(=O)NO)S(C)(=O)=O | < 3 | 2.4 |  |
| Cc1nn(C)c(C)c1-c1cccc2c(CCCOc3cccc4ccccc34)c(C(=O)O)[nH]c12 | 61.7 |  |  |
| Cc1ccccc1-c1c(C(=O)O)n(CCCOc2cccc3ccccc23)c2ccccc12 | 123 | 3.89 |  |
| CN(C(=O)Cc1ccc(-n2cnnn2)cc1)C1CCN(Cc2ccc(C(F)(F)F)cc2)CC1 |  |  | solubility thermodynamic (physchem [5]): 17.8 µM (≈ 8.16 µg/mL); fraction unbound at 5 h (in vitro [6]; PPB): 0.0872; fraction unbound at 5 h (in vitro [2]): 0.0606 |
| CCNC(=O)c1ccc(C)c(-n2cnc3ccc(N4CCN(C)CC4)cc3c2=O)c1 | < 3 | 1.47 |  |
| O=C(Nc1cccc(-c2nnn[nH]2)c1)c1cccc2[nH]cnc12 | 44.7 | -0.05 |  |
| O=C(Nc1cccc(-c2nnn[nH]2)c1)c1cc(O)cc(C(F)(F)F)c1 | 29.5 | 0.8 |  |
| Nc1cc(C(=O)Nc2cccc(-c3nnn[nH]3)c2)cc(C(F)(F)F)c1 | 23.4 | 0.2 |  |
| O=C(Nc1cccc(-c2nnn[nH]2)c1)c1cc(F)cc2nc[nH]c12 | 67.6 | 0.29 |  |
| Cc1ccc(-c2nc3ccccc3[nH]2)cc1NC(=O)c1ccc(OCc2ccccn2)cc1 | 10.2 | 3.24 |  |
| CCC(=C(c1ccc(O)cc1)c1ccc(OCCN(C)C)cc1)c1ccccc1 | 56.2 |  |  |
| Cc1ccc(C[C@@H](C(=O)O)N2CCC(CN3CCC(Oc4ccc(Cl)c(Cl)c4)CC3)CC2)cc1 | < 3 |  |  |
| Cc1c(C(=O)NC2C3CC4CC(C3)CC2C4)cnn1-c1ccc(C(=O)O)cc1 (centres undefined) | < 3 |  |  |
| CSc1c(C(=O)NC2C3CC4CC(C3)CC2C4)cnn1-c1ccc(C(=O)O)cc1 (centres undefined) | 12.3 |  |  |
| CCC(C)(C)C[C@H](c1ccc(C(=O)O)c(Oc2cccc(Cl)c2)c1)N1CCC[C@H](n2cc(C)c(=O)[nH]c2=O)C1 | 117 | 1.37 |  |
| CCCCC[C@H](c1ccc(C(=O)O)c(Oc2cccc(Br)c2)c1)N1CCC[C@H](n2cc(C)c(=O)[nH]c2=O)C1 | 30.2 | 1.69 |  |
| CCC(C)(CC)C[C@H](c1ccc(C(=O)O)c(Oc2cccc(Br)c2)c1)N1CCC[C@H](n2cc(C)c(=O)[nH]c2=O)C1 | 69.2 | 1.97 |  |
| Cc1cn([C@H]2CCCN([C@H](CC3CCCCC3)c3ccc(C(=O)O)c(Oc4cccc(Cl)c4)c3)C2)c(=O)[nH]c1=O | 42.7 |  |  |
| O=C(O)CN1C(=O)C(=O)c2ccccc21 | 26.9 |  |  |
| Cc1cc(Oc2cc(S(=O)(=O)N3CCC[C@H](n4cc(C)c(=O)[nH]c4=O)C3)ccc2O)ccc1Cl | 20.4 | 2.4 |  |
| O=C(O)c1cc2cc(OCc3ccccc3)ccc2[nH]1 | 25.7 | 0.4 |  |
| O=c1cc(-c2ccc(Br)cc2)oc2ccccc12 | < 3 |  |  |

| Compound | hepatocyte CLint (in vitro [1]) [µL/min/1e6 cells] | logD (physchem [4]; pH 7.4, LogD7.4) | further results |
| --- | --- | --- | --- |
| CC(C)C[C@H](N)C(=O)NC[C@H](O)C[C@@H](N)CC(=O)NN(C)CC(=O)O | < 3 |  |  |
| O=c1c2ccccc2[nH]n1Cc1c[nH]c2ccccc12 | 4.37 |  |  |
| CN(C)C(=O)[C@H](O)[C@H](Cc1ccccc1)NC(=O)c1cc2cc(Cl)ccc2[nH]1 |  | 3.6 | solubility thermodynamic (physchem [5]): 22.9 µM (≈ 9.16 µg/mL); fraction unbound at 5 h (in vitro [6]; PPB): 0.0219; fraction unbound at 5 h (in vitro [2]): 0.0268 |
| Cc1cccc2c(O)nc(-c3ccc(C(F)(F)F)cc3)nc12 | 45.7 |  |  |
| COc1ccc(C)c(Nc2ncc3ccn(-c4ccccn4)c3n2)c1 | 83.2 |  |  |
| O=C([C@@H]1CCCN1)N1CCN(c2nc(NCc3ccc(Cl)cc3Cl)c3cccnc3n2)CC1 | 6 | 2.41 |  |
| CNC(=O)c1c(F)cccc1Nc1nc(Nc2cc3c(cc2OC)CCN3C(=O)CN(C)C)nc2[nH]ccc12 | 21.9 | 2.61 |  |
| O=C(c1ccc(O)cc1O)N1CCCC1 | > 150 |  |  |
| COc1ccc(N(C(=O)c2ccccc2)C(C(=O)NC[C@@H](C)O)c2ccccc2F)c(OC)c1 (some centres undefined) | > 150 |  |  |
| CS(=O)(=O)N1CC[C@H](N(Cc2ccccc2Cl)c2ccc(C#N)c(Cl)c2)C1 | 72.4 |  | logD (physchem [4]; pH 7.4): 4 |
| CN(C)CC[C@H](CSc1ccccc1)Nc1ccc(S(=O)(=O)NC(=O)c2ccc(N3CCN(Cc4ccccc4-c4ccc(Cl)cc4)CC3)cc2)cc1[N+](=O)[O-] [ABT 737] | 9.55 |  |  |
| CCC1(CCC(C)C)C(=O)NC(=O)NC1=O [AMOBARBITAL] | 11.8 |  |  |
| COc1cc2nccc(Oc3ccc(NC(=O)C4(C(=O)Nc5ccc(F)cc5)CC4)cc3)c2cc1OC [CABOZANTINIB] | 3.16 |  |  |
| CC1=C(C(=O)O)N2C(=O)[C@@H](NC(=O)[C@H](N)c3ccc(O)cc3)[C@H]2SC1 [CEFADROXIL] | < 3 | -0.86 |  |
| C[C@H]1Cc2c([nH]c3cc(Cl)c(F)cc23)[C@@]2(N1)C(=O)Nc1ccc(Cl)cc12 [CIPARGAMIN] | 8.71 |  |  |
| CN(C)CCC=C1c2ccccc2C=Cc2ccccc21 [CYCLOBENZAPRINE] |  | 2.83 | fraction unbound at 5 h (in vitro [6]; PPB): 0.0784; fraction unbound at 5 h (in vitro [2]): 0.117; microsomal CLint (in vitro [3]; microsomes): 4.07 µL/min/mg |
| CC(C)OC(=O)C(C)(C)Oc1ccc(C(=O)c2ccc(Cl)cc2)cc1 [FENOFIBRATE] | 54 |  |  |
| CC(C(=O)O)c1cccc(Oc2ccccc2)c1 (centres undefined) [FENOPROFEN] |  | 0.71 | fraction unbound at 5 h (in vitro [2]): 0.0146; microsomal CLint (in vitro [3]; liver microsomes): 10.2 µL/min/mg |
| O=C(O)c1cc2ccccc2[nH]1 [INDOLE-2-CARBOXYLIC ACID] | 11 |  |  |
| N[C@@H](C(=O)N[C@@H]1C(=O)N2C(C(=O)O)=C(Cl)CC[C@H]12)c1ccccc1 [LORACARBEF ANHYDROUS] | < 3 |  |  |
| CC1(C)CCC(c2ccc(Cl)cc2)=C(CN2CCN(c3ccc(C(=O)NS(=O)(=O)c4ccc(N[C@H](CCN5CCOCC5)CSc5ccccc5)c(S(=O)(=O)C(F)(F)F)c4)cc3)CC2)C1 [NAVITOCLAX] | 9.77 | 0.64 |  |
| O=C1NC(=O)C(c2ccccc2)(c2ccccc2)N1 [PHENYTOIN] |  | 2.41 | solubility thermodynamic (physchem [5]): 79.4 µM (≈ 20 µg/mL); fraction unbound at 5 h (in vitro [6]; PPB): 0.129; fraction unbound at 5 h (in vitro [2]): 0.179 |
| CO[C@H]1C[C@@H]2CC[C@@H](C)[C@@](O)(O2)C(=O)C(=O)N2CCCC[C@H]2C(=O)O[C@H]([C@H](C)C[C@@H]2CC[C@@H](OC(=O)C(C)(CO)CO)[C@H](OC)C2)CC(=O)[C@H](C)/C=C(\C)[C@@H](O)[C@@H](OC)C(=O)[C@H](C)C[C@H](C)/C=C/C=C/C=C/1C [TEMSIROLIMUS] | > 150 |  |  |
| O=c1n(CCCN2CCN(c3cccc(Cl)c3)CC2)nc2ccccn12 [TRAZODONE] |  | 2.67 | solubility thermodynamic (physchem [5]): 891 µM (≈ 331 µg/mL); fraction unbound at 5 h (in vitro [6]): 0.03; fraction unbound at 5 h (in vitro [2]): 0.124 |
